Assay results taken from ChEMBL document CHEMBL5712891, “Inhibition of BET bromodomain-dependent XIAP and FLIP expression sensitizes KRAS-mutated NSCLC to pro-apoptotic agents” (Cell Death Dis, 2016).
Active and inactive are the calls of the source. No cut-off for these calls is given here.

How the values were obtained:
DV-90 [1] = test: Induction of apoptosis in human DV-90 cells assessed as late apoptotic cells at 2.5 uM for 24 hrs by annexin V-PI staining based flow cytometric analysis (reference value: 8.7%); type: functional
NCI-H1373 [2] = test: Induction of apoptosis in human NCI-H1373 cells assessed as early apoptotic cells at 0.5 uM for 24 hrs by annexin V-PI staining based flow cytometric analysis (reference value: 1.7%); type: functional
DV-90 [3] = test: Induction of cell cycle arrest in human DV-90 cells assessed as accumulation of cells at G0/G1 phase at 1 uM for 24 hrs by Click-iT EdU Alexa Fluor 647 flow cytometric assay kit analysis (reference value: 47%); type: functional
NCI-H1373 [4] = test: Induction of apoptosis in human NCI-H1373 cells assessed as viable cells at 0.5 uM for 24 hrs by annexin V-PI staining based flow cytometric analysis (reference value: 71.6%); type: functional; details: read-out: Activity
NCI-H460 [5] = test: Induction of apoptosis in human NCI-H460 cells assessed as viable cells at 2.5 uM for 24 hrs by annexin V-PI staining based flow cytometric analysis (reference value: 92.8%); type: functional; details: read-out: Activity
DV-90 [6] = test: Induction of cell cycle arrest in human DV-90 cells assessed as accumulation of cells at G2/M phase at 0.1 uM for 24 hrs by Click-iT EdU Alexa Fluor 647 flow cytometric assay kit analysis (reference value: 21%); type: functional
NCI-H1373 [7] = test: Induction of apoptosis in human NCI-H1373 cells assessed as early apoptotic cells at 2.5 uM for 24 hrs by annexin V-PI staining based flow cytometric analysis (reference value: 1.7%); type: functional
NCI-H1373 [8] = test: Induction of cell cycle arrest in human NCI-H1373 cells assessed as accumulation of cells at G0/G1 phase at 1 uM for 24 hrs by Click-iT EdU Alexa Fluor 647 flow cytometric assay kit analysis (reference value: 48%); type: functional
NCI-H460 [9] = test: Induction of cell cycle arrest in human NCI-H460 cells assessed as accumulation of cells at S phase at 0.1 uM for 24 hrs by Click-iT EdU Alexa Fluor 647 flow cytometric assay kit analysis (reference value: 54%); type: functional
NCI-H1373 [10] = test: Induction of cell cycle arrest in human NCI-H1373 cells assessed as accumulation of cells at G0/G1 phase at 0.1 uM for 24 hrs by Click-iT EdU Alexa Fluor 647 flow cytometric assay kit analysis (reference value: 48%); type: functional
NCI-H1373 [11] = test: Induction of cell cycle arrest in human NCI-H1373 cells assessed as accumulation of cells at G0/G1 phase at 0.5 uM for 24 hrs by Click-iT EdU Alexa Fluor 647 flow cytometric assay kit analysis (reference value: 45%); type: functional
NCI-H1373 [12] = test: Induction of cell cycle arrest in human NCI-H1373 cells assessed as accumulation of cells at G0/G1 phase at 0.5 uM for 24 hrs by Click-iT EdU Alexa Fluor 647 flow cytometric assay kit analysis (reference value: 48%); type: functional
DV-90 [13] = test: Induction of cell cycle arrest in human DV-90 cells assessed as accumulation of cells at S phase at 0.1 uM for 24 hrs by Click-iT EdU Alexa Fluor 647 flow cytometric assay kit analysis (reference value: 30%); type: functional
NCI-H460 [14] = test: Induction of cell cycle arrest in human NCI-H460 cells assessed as accumulation of cells at G0/G1 phase at 1 uM for 24 hrs by Click-iT EdU Alexa Fluor 647 flow cytometric assay kit analysis (reference value: 45%); type: functional
DV-90 [15] = test: Induction of cell cycle arrest in human DV-90 cells assessed as accumulation of cells at G0/G1 phase at 0.25 uM for 24 hrs by Click-iT EdU Alexa Fluor 647 flow cytometric assay kit analysis (reference value: 45%); type: functional
SK-LU-1 = test: Downregulation of FLIP mRNA expression level in human SK-LU-1 cells at 0.1 to 1 uM for 24 hrs by qRT-PCR analysis; type: functional, cell-based; details: dose 0.1-1 µM
NCI-H1373 [16] = test: Downregulation of XIAP protein expression level in human NCI-H1373 cells at 1 uM for 24 hrs by […] analysis; type: functional, cell-based
LCLC-97TM1 [17] = test: Downregulation of c-MYC protein expression level in human LCLC-97TM1 cells at 1 uM for 24 hrs by […] analysis; type: functional, cell-based
NCI-H441 = test: Downregulation of FLIP mRNA expression level in human NCI-H441 cells at 0.1 to 1 uM for 24 hrs by qRT-PCR analysis; type: functional, cell-based; details: dose 0.1-1 µM
NCI-H1792 = test: Downregulation of XIAP mRNA expression level in human NCI-H1792 cells at 0.1 to 1 uM for 24 hrs by qRT-PCR analysis; type: functional, cell-based; details: dose 0.1-1 µM
A549 [18] = test: Downregulation of c-MYC protein level in human A549 cells at 100 to 5000 nM upto 24 hrs by Western blot analysis; type: functional, cell-based; details: dose 100-5000 nM
NCI-H1373 [19] = test: Induction of cell cycle arrest in human NCI-H1373 cells assessed as accumulation of cells at S phase at 1 uM for 24 hrs by DAPI staining analysis (reference value: 40%); type: functional
A549 [20] = test: Induction of apoptosis in human A549 cells assessed as early apoptotic cells at 0.5 uM for 24 hrs by annexin V-PI staining based flow cytometric analysis (reference value: 0.4%); type: functional
NCI-H23 = test: Downregulation of FLIP mRNA expression level in human NCI-H23 cells at 0.1 to 1 uM for 24 hrs by qRT-PCR analysis; type: functional, cell-based; details: dose 0.1-1 µM
LCLC-97TM1 [21] = test: Downregulation of XIAP protein expression level in human LCLC-97TM1 cells at 1 uM for 24 hrs by […] analysis; type: functional, cell-based
NCI-H1373 [22] = test: Induction of TRAIL dependent apoptosis in human NCI-H1373 cells assessed as early apoptotic cells at 1 uM by annexin V-PI staining based flow cytometric analysis (reference value: 0.5%); type: functional
LCLC-97TM1 [23] = test: Downregulation of XIAP mRNA expression level in human LCLC-97TM1 cells at 0.1 to 1 uM for 24 hrs by qRT-PCR analysis; type: functional, cell-based; details: dose 0.1-1 µM
A549 [24] = test: Downregulation of c-MYC protein expression level in human A549 cells at 1 uM for 24 hrs by […] analysis; type: functional, cell-based
NCI-H2347 [25] = test: Downregulation of c-MYC mRNA expression level in human NCI-H2347 cells at 0.1 to 1 uM for 24 hrs by qRT-PCR analysis; type: functional, cell-based; details: dose 0.1-1 µM
A549 [26] = test: Downregulation of FLIP mRNA expression level in human A549 cells at 0.1 to 1 uM for 24 hrs by qRT-PCR analysis; type: functional, cell-based; details: dose 0.1-1 µM
NCI-H1373 [27] = test: Induction of cell cycle arrest in human NCI-H1373 cells assessed as accumulation of cells at G2/M phase at 1 uM for 24 hrs by Click-iT EdU Alexa Fluor 647 flow cytometric assay kit analysis (reference value: 13%); type: functional
NCI-H2347 [28] = test: Downregulation of XIAP protein expression level in human NCI-H2347 cells at 1 uM for 24 hrs by […] analysis; type: functional, cell-based
NCI-H460 [29] = test: Induction of apoptosis in human NCI-H460 cells assessed as viable cells at 2.5 uM for 24 hrs by annexin V-PI staining based flow cytometric analysis (reference value: 94%); type: functional; details: read-out: Activity

## Cc1sc2c(c1C)C(c1ccc(Cl)cc1)=N[C@@H](CC(=O)Nc1ccc(O)cc1)c1nnc(C)n1-2 [BIRABRESIB]
DV-90 [1]
  Activity: 13.5%
NCI-H1373 [2]
  Activity: 2.6%
DV-90 [3]
  Activity: 60%
NCI-H1373 [4]
  viability at 0.5 µM: 67.4%
NCI-H460 [5]
  viability at 2.5 µM: 90.4%
DV-90 [6]
  Activity: 29%
NCI-H1373 [7]
  Activity: 1.8%

## CCNC(=O)C[C@@H]1N=C(c2ccc(Cl)cc2)c2cc(OC)ccc2-n2c(C)nnc21 [MOLIBRESIB]
NCI-H1373 [8]
  Activity: 76%
NCI-H460 [9]
  Activity: 53%
NCI-H1373 [10]
  Activity: 47%
NCI-H1373 [11]
  Activity: 47%
NCI-H1373 [12]
  Activity: 73%
DV-90 [13]
  Activity: 27%
NCI-H460 [14]
  Activity: 52%
DV-90 [15]
  Activity: 49%

## Cc1sc2c(c1C)C(c1ccc(Cl)cc1)=N[C@@H](CC(=O)OC(C)(C)C)c1nnc(C)n1-2
SK-LU-1
  Activity: Active
NCI-H1373 [16]
  Activity: Active
LCLC-97TM1 [17]
  Activity: Active
NCI-H441
  Activity: Active
NCI-H1792
  Activity: Active
A549 [18]
  Activity: inactive
NCI-H1373 [19]
  Activity: 7%
A549 [20]
  Activity: 0.1%
NCI-H23
  Activity: Active
LCLC-97TM1 [21]
  Activity: Active
NCI-H1373 [22]
  Activity: 2.4%
LCLC-97TM1 [23]
  Activity: Active
A549 [24]
  Activity: Active
NCI-H2347 [25]
  Activity: Active
A549 [26]
  Activity: Active
NCI-H1373 [27]
  Activity: 21%
NCI-H2347 [28]
  Activity: Active
NCI-H460 [29]
  viability at 2.5 µM: 90.4%
